This experiment deals with T1, Full length human recombinant HDAC8 protein (Homo sapiens, UniProt Q9BY41).
T1 construct: Full length human recombinant HDAC8 protein was expressed in baculoviral system; made in house
T1 sequence (Q9BY41 1-377): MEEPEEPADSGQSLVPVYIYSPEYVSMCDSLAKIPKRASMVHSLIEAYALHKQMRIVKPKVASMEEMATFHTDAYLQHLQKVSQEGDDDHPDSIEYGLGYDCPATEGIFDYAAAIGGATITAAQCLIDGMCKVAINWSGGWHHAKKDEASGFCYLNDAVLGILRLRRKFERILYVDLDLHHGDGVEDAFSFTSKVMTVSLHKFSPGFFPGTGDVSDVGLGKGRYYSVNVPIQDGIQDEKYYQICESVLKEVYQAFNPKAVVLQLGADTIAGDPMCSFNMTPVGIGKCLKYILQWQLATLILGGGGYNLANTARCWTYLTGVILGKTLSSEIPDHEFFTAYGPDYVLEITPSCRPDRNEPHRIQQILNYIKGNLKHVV
As to the kind of experiment: In vitro histone deacetylase assay: enzymatic HDAC8 electrophoretic mobility shift assay. Format: biochemical. As for the experimental part: The enzymatic HDAC8 assay was performed using electrophoretic mobility shift assay. Full length human recombinant HDAC8 protein was expressed in baculoviral system and purified by affinity chromatography. The enzymatic reactions were assembled in 384 well plates in a total volume of 25 μL in a reaction buffer composing: 100 mM HEPES, pH7.5, 25 mM KCl, 0.1% bovine serum albumin, 0.01% Triton X-100, 1% DMSO (from compounds) 2 μM of the fluorescently labeled peptide substrate and enzyme. The enzyme was added at a final concentration of 1 nM. The peptide substrate RHKK(Ac)—NH2 was used. The compounds were tested at 12 concentrations spaced by 3× dilution intervals. Negative control samples (0%-inhibition in the absence of inhibitor) and positive control samples (100%-inhibition) were assembled in replicates of four in each assay plate. The reactions were incubated at 25° C. and quenched by the addition of 45 μL of termination buffer (100 mM HEPES, pH 7.5, 0.01% Triton X-100, 0.05% SDS).
The terminated assay plates were analyzed on LabChip® 3000 microfluidic electrophoresis instrument (Perkin Elmer/Caliper Life Sciences). The fluorescence intensity of the electrophoretically separated de-acetylated product and substrate peptide was measured. Activity in each sample was determined as the product to sum ratio (PSR): P/(S+P), where P is the peak height of the product peptide and S is the peak height of the substrate peptide. Percent inhibition (Pinh) is determined using the following equation: Pinh=(PSR0%−PSRinh)/(PSR0%−PSR100%)*100, where PSRinh is the product sum ratio in the presence of inhibitor, PSR0% is the average product sum ration in the absence of inhibitor and PSR100% is the average product sum ratio in 100%-inhibition control samples. The IC50 values of inhibitors were determined by fitting the %-inhibition curves with 4 parameter dose-response model using XLfit 4 software.
A general note: Mobility shift assays separate free from complexed probe on a gel.

Setting [1] is: electrophoretic mobility shift assay, enzyme 1 nM, 2 μM fluorescently labeled peptide substrate RHKK(Ac)-NH2, 25° C., 12 concentrations, read-out: HDAC8 IC50.

pIC50: −log10 of the molar value. Like-named read-outs stand apart in the source and are kept apart here.

The term pIC50 denotes the negative decadic logarithm of the IC50, by convention in mol/L. As for `CN(C(=O)CN1C(=O)COc2ccc(C(=O)NO)cc21)C1CC1` [Compound I-51, 4-(2-(cyclopropyl(methyl)amino)-2-oxoethyl)-N-hydroxy-3-oxo-3,4-dihydro-2H-benzo[b][1,4]oxazine-6-carboxamide], the pIC50 is 6.00 to 7.00. Take `O=C(NO)c1ccc2c(c1)N(CCN1CCCS1(=O)=O)C(=O)CO2` [Compound I-52, 4-(2-(1,1-dioxidoisothiazolidin-2-yl)ethyl)-N-hydroxy-3-oxo-3,4-dihydro-2H-benzo[b][1,4]oxazine-6-carboxamide]: under setting [1], the pIC50 was 6.00 to 7.00. Consider `O=C(NO)c1ccc2c(c1)N(CCOc1ccc(C(F)(F)F)cc1)C(=O)CO2` [Compound I-55, N-hydroxy-3-oxo-4-(2-(4-(trifluoromethyl)phenoxy)ethyl)-3,4-dihydro-2H-benzo[b][1,4]oxazine-6-carboxamide], for which, under setting [1], the pIC50 is 7.00 to 7.60. Same read-out and setting: for `CN(C)S(=O)(=O)c1ccc(OCCN2C(=O)COc3ccc(C(=O)NO)cc32)cc1` [Compound I-56, 4-(2-(4-(N,N-dimethylsulfamoyl)phenoxy)ethyl)-N-hydroxy-3-oxo-3,4-dihydro-2H-benzo[b][1,4]oxazine-6-carboxamide] the value was 7.00 to 7.60; for `CC(C)CN1C(=O)COc2ccc(C(=O)NO)cc21` [Compound I-57, N-hydroxy-4-isobutyl-3-oxo-3,4-dihydro-2H-benzo[b][1,4]oxazine-6-carboxamide], 6.00 to 7.00; for `O=C(NO)c1ccc2c(c1)N(Cc1ccccn1)C(=O)CO2` [Compound I-61, N-hydroxy-3-oxo-4-(pyridin-2-ylmethyl)-3,4-dihydro-2H-benzo[b][1,4]oxazine-6-carboxamide], 6.00 to 7.00.

`COc1ccccc1CN1C(=O)COc2ccc(C(=O)NO)cc21` [Compound I-63, N-hydroxy-4-(2-methoxybenzyl)-3-oxo-3,4-dihydro-2H-benzo[b][1,4]oxazine-6-carboxamide]: the pIC50 under setting [1] was 6.00 to 7.00. `O=C(NO)c1ccc2c(c1)N(Cc1ccccc1C(F)(F)F)C(=O)CO2` [Compound I-65, N-hydroxy-3-oxo-4-(2-(trifluoromethyl)benzyl)-3,4-dihydro-2H-benzo[b][1,4]oxazine-6-carboxamide]: under setting [1], the pIC50 was 6.00 to 7.00. Take `O=C(NO)c1ccc2c(c1)N(Cc1ccccc1OC(F)(F)F)C(=O)CO2` [Compound I-66, N-hydroxy-3-oxo-4-(2-(trifluoromethoxy)benzyl)-3,4-dihydro-2H-benzo[b][1,4]oxazine-6-carboxamide]: the pIC50 under setting [1] was 6.00 to 7.00. As for `CC(c1ccccc1)N1C(=O)COc2ccc(C(=O)NO)cc21` (stereo not drawn) [Compound I-67, N-hydroxy-3-oxo-4-(1-phenylethyl)-3,4-dihydro-2H-benzo[b][1,4]oxazine-6-carboxamide], under setting [1], the pIC50 is 7.00 to 7.60. As to `O=C(NO)c1ccc2c(c1)N(Cc1ccccc1F)C(=O)CO2` [Compound I-69, 4-(2-fluorobenzyl)-N-hydroxy-3-oxo-3,4-dihydro-2H-benzo[b][1,4]oxazine-6-carboxamide], under setting [1], the pIC50 was greater than 7.60. Turning to `CC(C)(C)c1ccc(CN2C(=O)COc3ccc(C(=O)NO)cc32)cc1` [Compound I-70, 4-(4-(tert-butyl)benzyl)-N-hydroxy-3-oxo-3,4-dihydro-2H-benzo[b][1,4]oxazine-6-carboxamide], the pIC50 under setting [1] is greater than 7.60. As for `O=C(NO)c1ccc2c(c1)N(Cc1ccc(F)c(F)c1)C(=O)CO2` [Compound I-71, 4-(3,4-difluorobenzyl)-N-hydroxy-3-oxo-3,4-dihydro-2H-benzo[b][1,4]oxazine-6-carboxamide], the pIC50 under setting [1] was greater than 7.60.

In the case of `Cc1ccc(C(F)(F)F)cc1CN1C(=O)COc2ccc(C(=O)NO)cc21` [Compound I-72, N-hydroxy-4-(2-methyl-5-(trifluoromethyl)benzyl)-3-oxo-3,4-dihydro-2H-benzo[b][1,4]oxazine-6-carboxamide], under setting [1], the pIC50 was greater than 7.60. `O=C(NO)c1ccc2c(c1)N(Cc1cc(C(F)(F)F)ccc1F)C(=O)CO2` [Compound I-73, 4-(2-fluoro-5-(trifluoromethyl)benzyl)-N-hydroxy-3-oxo-3,4-dihydro-2H-benzo[b][1,4]oxazine-6-carboxamide]: the pIC50 under setting [1] is greater than 7.60.

These data come from US10370343B2, “[6,6] Fused bicyclic HDAC8 inhibitors” (FORMA Therapeutics, Inc., priority 2015, dated 2019).
